Results as given in patent US20120010285A1, “AGENT FOR PROMOTING ENERGY CONSUMPTION” (KAO CORPORATION, priority 2009, published 2012).

Assays:
ACC2 mRNA = assay: Expression of ACC2 mRNA in cultured mouse liver cell line Hepa1-6 (quantitative PCR); type: cell-based; conditions: Hepa1-6 cells, each of the chlorogenic acids (Production Example 4) 5 mM, 24 hours, control at 100
Procedure: (§1) A cultured mouse liver cell line (Hepa1-6 cell) was cultured in 10% bovine serum-containing Dulbeco's Modified Eagle's Medium (DMEM) at 37° C., 5% CO2. The cells were seeded in a 6-well plate, and when they reached subconfluency, the medium was replaced by a serum free medium (DMEM, -FBS), followed by culturing for further 12 hours. Subsequently, various samples were added (final concentration: chlorogenic acids (Production Example 1) 2.5×10^−4% (w/v) and each of the chlorogenic acids (Production Example 4) 5 mM), and after 24 hours of culturing, total RNA was prepared according to a standard method. After preparing cDNA by reverse transcription reaction, quantitative PCR was performed by ABI PRISM 7000 Sequence Detection System (Applied Biosystems) using Power SYBR Green Master Mix (Applied Biosystems). Also, the expression level of each gene was corrected using the expression level of 36B4 as an internal standard, and represented as a relative expression level by setting the expression level of control at 100.

PDK4 mRNA = assay: Expression of PDK4 mRNA in cultured mouse liver cell line Hepa1-6 (quantitative PCR); type: cell-based; conditions: Hepa1-6 cells, each of the chlorogenic acids (Production Example 4) 5 mM, 24 hours, control at 100
Procedure: as §1

Row | SMILES | expression of ACC2 mRNA (ACC2 mRNA) | expression of PDK4 mRNA (PDK4 mRNA)
1 | O=C(/C=C/c1ccc(O)c(O)c1)O[C@@H]1C[C@](O)(C(=O)O)C[C@@H](O)[C@H]1O [3-caffeoylquinic acid] | significantly reduced | significantly inhibited
2 | O=C(/C=C/c1ccc(O)c(O)c1)O[C@@H]1[C@H](O)C[C@@](O)(C(=O)O)C[C@H]1OC(=O)/C=C/c1ccc(O)c(O)c1 [3,4-dicaffeoylquinic acid] | significantly reduced | significantly inhibited
3 | O=C(/C=C/c1ccc(O)c(O)c1)O[C@@H]1CC(O)(C(=O)O)C[C@@H](OC(=O)/C=C/c2ccc(O)c(O)c2)C1O (some centres unmarked) [3,5-dicaffeoylquinic acid] | significantly reduced | –
4 | O=C(/C=C/c1ccc(O)c(O)c1)O[C@H]1[C@H](O)C[C@](O)(C(=O)O)C[C@H]1OC(=O)/C=C/c1ccc(O)c(O)c1 [4,5-dicaffeoylquinic acid] | significantly reduced | –
5 | O=C(/C=C/c1ccc(O)c(O)c1)O[C@H]1[C@H](O)C[C@](O)(C(=O)O)C[C@H]1O [4-caffeoylquinic acid] | significantly reduced | significantly inhibited
